Reference: PubChem BioAssay (NCI)
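Five concentrations, 48 hours, 96-well plates. Here, GI50 denotes the concentration required for 50% inhibition of growth. TGI marks complete inhibition of growth.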

Experiments:
Assay in all cases: growth of human tumour cells (NCI), 48 h
786-0 renal = test system: 786-0 renal
ACHN renal = test system: ACHN renal
CCRF-CEM leukemia = test system: CCRF-CEM leukemia
COLO 205 colon = test system: COLO 205 colon
HL-60(TB) leukemia = test system: HL-60(TB) leukemia
NCI-H522 lung = test system: NCI-H522 lung
OVCAR-5 ovarian = test system: OVCAR-5 ovarian
SF-268 CNS = test system: SF-268 CNS
SK-OV-3 ovarian = test system: SK-OV-3 ovarian
SNB-75 CNS = test system: SNB-75 CNS

Row | Structure (SMILES) | TGI (786-0 renal) [µM] | TGI (ACHN renal) [µM] | TGI (CCRF-CEM leukemia) [µM] | TGI (COLO 205 colon) [µM] | TGI (HL-60(TB) leukemia) [µM] | TGI (NCI-H522 lung) [µM] | TGI (OVCAR-5 ovarian) [µM] | TGI (SF-268 CNS) [µM] | TGI (SK-OV-3 ovarian) [µM] | TGI (SNB-75 CNS) [µM] | GI50 (786-0 renal) [µM] | GI50 (ACHN renal) [µM] | GI50 (CCRF-CEM leukemia) [µM] | GI50 (COLO 205 colon) [µM] | GI50 (HL-60(TB) leukemia) [µM] | GI50 (NCI-H522 lung) [µM] | GI50 (OVCAR-5 ovarian) [µM] | GI50 (SF-268 CNS) [µM] | GI50 (SK-OV-3 ovarian) [µM] | GI50 (SNB-75 CNS) [µM]
1 | COC(CCC[N+](C)(C)C)CC[N+](C)(C)C (stereo unspecified) | > 100 | > 100 | > 100 | > 100 | > 100 | > 100 | > 100 | > 100 | > 100 | > 100 |  |  |  |  |  |  |  |  |  | 
2 | CN1CCCCC1CCN1c2ccccc2Sc2ccc(Cl)cc21 (stereo unspecified) | 14.5 | 12.9 | 13.5 | 4.83 | 6.05 | 7.37 | 14 | 8.85 | 13.7 | 6.19 | 3.85 | 3.3 | 3.81 | 2.24 | 2.66 | 2.31 | 3.65 | 2.99 | 3.69 | 1.54
3 | COc1cc(/C=N\NC(=O)CN2CCN(c3cc4c(cc3F)c(=O)c(C(=O)N/N=C/c3cc(OC)c(OC)c(OC)c3)cn4C3CC3)CC2)cc(OC)c1OC | > 100 | > 100 | > 100 | > 23.2 | > 31.7 |  | > 62.4 |  | > 53.1 | 2.12 | 18.7 | > 100 | 0.316 | 0.45 | 0.32 | 0.249 | 0.489 | 0.292 | 0.718 | 0.53
4 | CCN1/C(=C\c2cc[n+](CC)c3ccccc23)C=Cc2ccccc21 | 12 | 5.88 | 13.4 | 0.32 | 0.82 | 10.3 | 13.8 | 13.2 | 11.4 | 0.871 | 0.465 | 1.19 | 0.0859 | 0.102 | 0.123 | 0.197 | 0.611 | 0.291 | 0.236 | 0.169
5 | Nc1ccccc1S(=O)(=O)N(CC(=O)O)c1ccccc1 | > 100 | > 100 | > 100 | > 100 | > 100 | > 100 | > 100 | > 100 | > 100 | > 100 |  |  |  |  |  |  |  |  |  | 
6 | O=C1NC(=NCCc2cccc(F)c2)S/C1=C\c1ccc2ncccc2c1 | > 25 | > 25 | > 25 | > 25 | > 12.9 | 24.9 | > 25 | > 25 | > 25 | > 21.9 | 7.15 | 10.2 | 1.15 | 1.43 | 2.08 | 3.59 | > 25 | 10.7 | 4.38 | 3.79
7 | O=C(CCc1nc(=S)[nH][nH]1)Nc1ccc(Cl)c(Cl)c1 | > 100 | > 100 | > 100 | > 100 | > 100 | 72.1 | > 100 | > 100 | > 100 | 75.5 |  |  |  |  |  |  |  |  |  | 
8 | C[N+](C)(C)CC(=O)N/N=C(/CC(=O)CC(C1=C(O)c2ccccc2OC1)c1ccccc1)C(=O)Nc1cccc(Cl)c1 (stereo unspecified) | > 100 | > 100 | > 100 | > 100 | > 100 | > 100 | > 100 | > 100 | > 100 | > 100 |  |  |  |  |  |  |  |  |  | 
9 | COc1cc2c(c(OC)c1OC)-c1ccc(NNC(N)=S)c(=O)cc1[C@@H](NC(C)=O)CC2 | > 100 | > 100 | > 100 | 0.529 |  | > 100 | > 100 | > 100 | > 100 | > 100 | 0.867 | 7.19 | 0.434 | 0.244 | 0.226 | 0.55 | 7.21 | 0.509 | 0.817 | 
10 | Fc1ccc(NC(=S)SCc2ccc3c(c2)OCO3)cc1F | 72.4 | 64.4 | 77.3 | 44.9 | 42.6 | 35.4 | 46.3 | 52.8 | > 100 | 66.8 |  |  |  |  |  |  |  |  |  | 
11 | O=C1/C(=C/c2ccc(O)c(O)c2)CCC/C1=C\c1ccc(O)c(O)c1 | 15.5 | 11 | > 25.4 | > 64 | > 27.9 | 2.22 | 31.2 | 14.7 | 20.7 | 12.9 |  |  |  |  |  |  |  |  |  | 
12 | Cc1ccnc2c1ccc1c(C)ccnc12 | 10.9 | 10.5 | 3 | 13 | 2.39 | 4.97 | 19 | 14.6 | 9.61 | 14.6 | 0.327 | 0.357 | 0.361 | 0.568 | 0.328 | 0.608 | 0.75 | 0.454 | 0.526 | 0.84
13 | NC1=NCCC1(c1ccccc1)c1ccccn1 (stereo unspecified) | > 100 | > 100 | > 100 | > 100 | > 100 | > 100 | > 100 | > 100 | > 100 | > 100 |  |  |  |  |  |  |  |  |  | 
14 | CN(C)N=Nc1ccc(C(N)=O)cc1 | > 100 | > 100 | > 100 | > 100 | > 100 | > 100 | > 100 | > 100 | > 100 | > 100 |  |  |  |  |  |  |  |  |  | 
